Literature values in patent US7759338B2, “Soluble 1,4 benzodiazepine compounds and stable salts thereof” (The Regents of the University of Michigan, priority 2006, dated 2010).

Legend:
[1] = biological target: mitochondrial F1Fo-ATPase; conditions: F1Fo-ATPase inhibition
[2] = tested on: rodents; conditions: two daily doses

Q: With `CC[C@H]1/C=C/C=C/C[C@@H](C)[C@H](O)[C@@](C)(O)C(=O)[C@@H](C)[C@H](O)[C@@H](C)C(=O)[C@@H](C)[C@H](O)[C@@H](C)/C=C/C(=O)O[C@@H]2[C@H](C)[C@H](CC1)O[C@]1(CC[C@H](C)[C@H](C[C@@H](C)O)O1)[C@H]2C` [oligomycin] as the compound, how does the IC50 [1] read?
A: The IC50 was 10 nM.

Q: And the LD50 [2]?
A: The LD50 was 0.5 mg/kg.
